Results published in patent US12391646B2, “Using adiponectin receptor agonists to treat inflammation and bone diseases in diabetes” (Trustees of Tufts College, priority 2020, dated 2025).

How the values were obtained:
Type in all cases: cell-based
Raw264.7 cells = assay: CCK-8 cytotoxicity assay, 24 hours; settings: at 40 μM or lower concentrations
Procedure: (§1) FIG. 1 Characterization of anti-inflammatory properties of APR-like compounds. (a) Raw264.7 cells were pretreated with APR (20 μM) or new compounds 1 to 10 (5 μM) for 24 h followed by incubation with LPS (100 ng/mL) for an additional 6 h. IL-6 and IL-1β mRNA expression levels were evaluated by qPCR and normalized with GAPDH mRNA level. (b) Raw264.7 cells were pretreated with different doses of AdipoAI for 24 h followed by incubation with LPS (100 ng/mL) for additional 6 h to evaluate dose-dependency of AdipoAI in inhibiting IL-6 and IL-1β mRNA expression levels by qRT-PCR and normalized with GAPDH mRNA level. (c) Evaluation of cytotoxicity of APR, AdipoAI and compound 5 by CCK8 assay in Raw264.7 cells treated for 24 hours. (d) BMMs were pretreated with APR (20 μM), AdipoAI (5 μM) or compound 5 (5 μM) for 24 h followed by incubation with LPS (100 ng/ml) for additional 6 h for the measurement of IL-6 and IL-1β mRNA expression levels by qRT-PCR and normalized with GAPDH mRNA level. Data were expressed as the mean±SEM at five biological independent experiments. One-way ANOVA test for multiple-group comparisons, *P<0.05, significant differences between each indicated group.
Raw264.7 cells were seeded at 2×10^3 cells/well in 96-well plates for 16 hours and then serum-starved for 6 hours. Cells were maintained in DMEM in the presence of different concentrations of APR (AdipoGen Life Sciences, San Diego, CA, USA) and compounds for 24 hours. […] The detailed group assignment is shown in the individual figure legends.

[1] = test system: LPS-stimulated RAW 264.7 macrophages; assay: qPCR of cytokine mRNA in LPS-stimulated RAW 264.7 macrophages; settings: compounds at 5 μM vs APR at 20 μM, 24 h pretreatment, then LPS 100 ng/mL 6 h
Procedure: as §1
RAW 264.7 macrophage cell line was purchased from ATCC (Manassas, VA, USA) and maintained in DMEM (Gibco, Life Technologies, Carlsbad, CA, USA) supplemented with 10% (v.v-1) FBS (Gibco, Life Technologies) and 1% (v.v-1) penicillin/streptomycin (Gibco, Life Technologies). The cells were routinely cultured in an incubator at 37° C. in a humidified atmosphere of 5% CO2.
Total RNA of cells was extracted using Quick-RNA Miniprep Kit (ZYMO Research, Irvine, CA, USA) and total RNA from mouse tissues was prepared with TriZol reagent (Life Technologies) according to the manufacturer's instructions followed by qRT-PCR assays as described previously (L. Zhang et al., 2014). 1 μg of total RNA was used for reverse transcription using the M-MLV Reverse Transcriptase (Thermo Scientific, Waltham, MA, USA) according to the manufacturer's protocol using PowerUp SYBR Green Master Mix (Thermo Scientific) on a Bio-Rad iQ5 thermal cycler (Bio-Rad Laboratories, Hercules, CA, USA). Differences in expression were evaluated by the comparative cycle threshold method using GAPDH or β-actin as a control. The primer sequences used for the qRT-PCR experiments are listed in supplemental Table 1.
Macrophages were seeded at a density of 5×10^5 cells/well in 12-well plates. After overnight incubation, the cells were transfected for 24 h with siRNAs targeting specific genes or scrambled control siRNAs using HiPerFect Transfection Reagent (Qiagen, Hilden, Germany) according to the manufacturer's guidelines. Gene silencing efficiency was monitored by qPCR or Western blot analysis. The siRNA duplexes used in this study were chemically synthesized by Thermo Scientific.

[2] = test system: RAW 264.7 cells in high glucose medium; assay: Osteoclastogenesis and autophagy of RANKL-treated RAW 264.7 cells in high glucose medium; settings: high glucose medium
Procedure: FIG. 20 RAW 264.7 cells were treated with RANKL (100 ng/ml) with or without AdipoRon ([…]) or AdipoAI (5 μM) in low (5 mmol/l) glucose, 20 mmol/l D-mannitol or high (25 mmol/l) glucose medium. qRT-PCR analysis of cathepsin K (A), TRAP (B) and microtubule associated protein 1 light chain 3 (LC3) (C), and mRNA expression were calculated (n≥3). (D) Western blot analysis of LC3A/B protein levels normalized to β-actin. (E) The mean of protein/β-actin ratios normalized to 1.0 (RANKL-AdipoRon-AdipoAI-H group) quantified by densitometry. (F) Autophagosome images obtained with laser confocal microscopy after the RAW 264.7 cells were transfected with a GFP-LC3 plasmid and treated with RANKL and AdipoRon or AdipoAI (scale bar=50 μm). Data are shown as mean±SD. *, P<0.05. **P<0.01. ***P<0.001.
FIG. 21 Autophagy inhibitor reverses AdipoAI-inhibited osteoclastogenesis in high glucose medium. RAW 264.7 cells were treated with RANKL (100 ng/ml) in 2 days and with or without AdipoAI (5 μM) for 24 hours followed by 3-methyladenine (3-MA, 2.5 mM) treatment for another 24 hours in high glucose medium. qRT-PCR analysis of cathepsin K (A), TRAP (B) and LC3 (C) mRNA expression were calculated (n≥3). (D) Western blot analysis of LC3A/B protein levels normalized to β-actin. (E) The mean of protein/β-actin ratios normalized to 1.0 (3-MA-, RANKL-, AdipoAI-group) quantified by densitometry. Data are shown as mean±SD. *, P<0.05. **P<0.01. ***P<0.001.
FIG. 22 AdipoAI-induced autophagy of osteoclasts in high glucose medium via AKT1/mTOR signaling pathway. RAW 264.7 cells were induced with RANKL for 2 days and then treated with or without (5 μM) additional 24 hours after serum starvation for 4 hours. Then, the cells were treated with RANKL, AdipoAI or SC79 (5 μM), an AKT activator, for another 24 hours in high glucose medium. qRT-PCR analysis of mRNA expression of cathepsin K (A), TRAP (B) and LC3 (C) were calculated (n≥3). (D) Representative images show the protein expression levels of AKT, p-AKT, AKT1, p-AKT1, mTOR, p-mTOR, and LC3A/B in osteoclasts. Quantitative analysis of bands is shown in (E-K) (n≥3). Data are shown as mean±SD. *, P<0.05. **P<0.01. ***P<0.001. R: RANKL. A, AI: AdipoAI. SC5: SC79 (5 μM).
RAW 264.7 cells (ATCC, Manassas, VA, USA) were cultured and passaged in DMEM supplemented with 10% (v/v) FBS (Invitrogen, Grand Island, NY, USA) and 1% Penicillin-Streptomycin (Gibco, Gaithersburg, MD, USA). For the induction of osteoclastogenesis, RAW 264.7 cells were cultured 24 in α-MEM supplemented with 10% FBS and 1% Penicillin-Streptomycin in the presence of 100 ng/ml RANKL (Peprotech, Rocky Hill, NJ, USA) for 2 days, and subsequently treated or not with AdipoRon or AdipoAI for another 2 days changing cell culture medium every 2 days. After a total of […] of culture, morphologic examination was performed, as was mRNA and protein expression. To simulate high glucose environment in vitro, α-MEM was supplemented with D-glucose to 25 mmol/l (high glucose) or 5 mmol/l (physiological glucose). 20 mmol/l D-mannitol served as an osmotic control.
Total RNA was isolated from cell cultures and gingival soft tissues using TriZol reagent (Life Technologies, Carlsbad, CA, USA) according to the manufacturer's instructions^24. Reverse transcription was performed using the PrimeScript RT Master Mix (Takara Bio, Otsu, Japan) and real-time-qPCR analyses were performed using SYBR-Green Real-Time PCR Master Mix (Takara Bio, Otsu, Japan) as described earlier^27.
Total cellular extracts were prepared using RIPA Lysis and Extraction Buffer containing three Protease Inhibitors (Santa Cruz, Dallas, TX, USA). Western blot analyses were performed as previously described 24. Antibodies for β-actin (1:2000) and GAPDH (1:5000), LC3A/B (1:1000), AKT1 (1:1000), p-AKT1 (1:1000), AKT (1:1000), p-AKT (1:1000), mTOR (1:1000), p-mTOR (1:1000) were purchased from Abcam and Cell Signaling Technology, respectively. SC79, an AKT activator was purchased from Sigma Aldrich. […]

SMILES: CC(c1ccccc1)N1CCC(NC(=O)COc2ccc(C(=O)c3ccc(Cl)cc3)cc2)CC1 (stereo not drawn) [Compound 5]
- cytotoxic effects (CCK-8) (Raw264.7 cells): neither of the 3 small molecules mediated significant cytotoxic effects
- inhibition of IL-6 and IL1-β mRNA expression [1]: stronger inhibitory effects than APR

SMILES: CCOC(=O)C1=C(N)Oc2ccc(Cl)cc2C1C(C#N)C(=O)OCC (stereo not drawn) [SC79, reference compound]
- LC3II, AKT expression and AKT, AKT1, mTOR phosphorylation changes induced by AdipoAI ([2]; SC79 5 μM): reverses the promoted expression of LC3II
- LC3 mRNA and osteoclastogenic marker mRNA under AdipoAI ([2]; SC79 5 μM): reverses the upregulated expression of LC3 mRNA and downregulated expression of osteoclastogenic markers

SMILES: Cn1cnc(N)c2ncnc1-2 [3-methyladenine, reference compound]
- LC3 mRNA and LC3II protein induced by AdipoAI ([2]; 3-MA 2.5 mM 24 hours): decreased the mRNA expression of LC3 and protein expression of LC3II induced by AdipoAI
- AdipoAI-inhibited mRNA expression of Cathepsin K and TRAP ([2]; 3-MA 2.5 mM): reversed the AdipoAI-inhibited mRNA expression of osteoclastogenesis markers Cathepsin K and TRAP
